Assays:
HG23 cells = assay: Nonspecific cytotoxic effects in HG23 cells; type: cell-based; details: cytotoxic dose for 50% cell death (CC50), 1 to 100 μM, 48 h, CytoTox 96 kit and crystal violet staining, average of at least two determinations
NV 3CLpro = NV 3CLpro (Norwalk virus, UniProt Q83883); assay: FRET protease assay, NV 3CLpro; type: biochemical; details: for Activity against NV 3CLpro and in cell based assays (in words): summary of Table 1; for Fold less active than compounds 13/25: n-pentyl chain versus m-chlorophenyl
Chain of NV 3CLpro (Q83883 1101-1281): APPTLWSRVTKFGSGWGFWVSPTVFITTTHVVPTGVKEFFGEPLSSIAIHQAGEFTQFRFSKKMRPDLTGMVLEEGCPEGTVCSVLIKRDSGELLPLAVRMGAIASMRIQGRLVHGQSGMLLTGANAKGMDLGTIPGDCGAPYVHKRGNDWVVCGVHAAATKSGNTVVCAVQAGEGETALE

Row | Structure (SMILES) | TC50 (EC50) (HG23 cells) [µM] | also measured
1 | CC(C)C[C@@H]1NC(=O)OC(Cc2ccccc2)CCCCCNC(=O)CC[C@@H](C=O)NC1=O (stereo partly drawn) [Compound 12, (4S, 7S)-17-Benzyl-4-isobutyl-2,5,10-trioxo-1-oxa-3,6,11-triazacycloheptadecane-7-carbaldehyde] | >100 | –
2 | CC(C)C[C@@H]1NC(=O)OC(c2cccc(Cl)c2)CCCCCONC(=O)CC[C@@H](C=O)NC1=O (single isomer, unassigned) [Compound 36B] | 73.8 | –
3 | O=C[C@@H]1CCC(=O)NCCCCCCC(c2cccc(Cl)c2)OC(=O)NC2(CCCCC2)C(=O)N1 (stereo partly drawn) [Compound 19, (21S)-10-(3-Chlorophenyl)-8,18,23-trioxo-9-oxa-7,17,22-triazaspiro [5.17] tricosane-21-carbaldehyde] | 53.3 | Activity against NV 3CLpro and in cell based assays (in words) (NV 3CLpro): inactive
4 | CC(C)C[C@@H]1NC(=O)OC(c2cccc(Cl)c2)CCCCCCNC(=O)CC[C@@H](C=O)NC1=O (stereo partly drawn) [Compound 15, (4S, 7S)-18-(3-Chlorophenyl)-4-isobutyl-2,5,10-trioxo-1-oxa-3,6,11-triazacyclooctadecane-7-carbaldehyde] | 67.4 | –
5 | C[C@@H]1NC(=O)OC(c2cccc(Cl)c2)CCCCCCNC(=O)CC[C@@H](C=O)NC1=O (stereo partly drawn) [Compound 17, (4S, 7S)-18-(3-Chlorophenyl)-4-methyl-2,5,10-trioxo-1-oxa-3,6,11-triazacyclooctadecane-7-carbaldehyde] | >100 | –
6 | CC(C)C[C@@H]1NC(=O)OC(c2cccc(Cl)c2)CCCCCNC(=O)CC[C@@H](C(=O)C(=O)NC2CC2)NC1=O (stereo partly drawn) [Compound 31, 2-((4S, 7S)-17-(3-Chlorophenyl)-4-isobutyl-2,5,10-trioxo-1-oxa-3,6,11-triazacycloheptadecan-7-yl)-N-cyclopropyl-2-oxoacetamide] | 53.1 | –
7 | O=C[C@@H]1CCC(=O)NCCCCCC(c2cccc(Cl)c2)OC(=O)N[C@@H](CC2CCCCC2)C(=O)N1 (stereo partly drawn) [14(major), (4S, 7S)-17-(3-Chlorophenyl)-4-(cyclohexylmethyl)-2,5,10-trioxo-1-oxa-3,6,11-triazacycloheptadecane-7-carbaldehyde] | 62.4 | –
8 | CC(C)C[C@@H]1NC(=O)OC(CCCc2ccccc2)CCCCCNC(=O)CC[C@@H](C=O)NC1=O (stereo partly drawn) [Compound 20, (4S, 7S)-4-Isobutyl-2,5,10-trioxo-17-(3-phenylpropyl)-1-oxa-3,6,11-triazacycloheptadecane-7-carbaldehyde] | 71.5 | –
9 | O=C[C@@H]1CCC(=O)NC/C=C/CCC(c2cccc(Cl)c2)OC(=O)N[C@@H](CC2CCCCC2)C(=O)N1 (stereo partly drawn) [Compound 24, (4S, 7S, E)-17-(3-Chlorophenyl)-4-(cyclohexylmethyl)-2,5,10-trioxo-1-oxa-3,6,11-triazacycloheptadec-13-ene-7-carbaldehyde] | 42.3 | –
10 | CC(C)C[C@@H]1NC(=O)OC(c2cccc(Cl)c2)CCCCCNC(=O)CC[C@@H](C=O)NC1=O (stereo partly drawn) [Compound 13, (4S, 7S)-17-(3-Chlorophenyl)-4-isobutyl-2,5,10-trioxo-1-oxa-3,6,11-triazacycloheptadecane-7-carbaldehyde] | >100 | –
11 | CC(C)C[C@@H]1NC(=O)OC(c2cccc(Cl)c2)CCCCCNC(=O)CC[C@@H](C(O)S(=O)(=O)[O-])NC1=O.[Na+] (stereo partly drawn) [Compound 25, Sodium ((4S, 7S)-17-(3-chlorophenyl)-4-isobutyl-2,5,10-trioxo-1-oxa-3,6,11-triazacycloheptadecan-7-yl) (hydroxy) methanesulfonate] | >100 | –
12 | CC(C)C[C@@H]1NC(=O)OC(c2cccc(Cl)c2)CCCCCONC(=O)CC[C@@H](C=O)NC1=O (single isomer, unassigned) [Compound 36A] | 68.3 | –
13 | C[C@@H]1NC(=O)OC(c2cccc(Cl)c2)CCCCCNC(=O)CC[C@@H](C=O)NC1=O (stereo partly drawn) [Compound 16, (4S, 7S)-17-(3-Chlorophenyl)-4-methyl-2,5,10-trioxo-1-oxa-3,6,11-triazacycloheptadecane-7-carbaldehyde] | >100 | –
14 | CC(C)C[C@@H]1NC(=O)OC(Cc2ccccc2)CC/C=C/CNC(=O)CC[C@@H](C=O)NC1=O (stereo partly drawn) [Compound 23, (4S, 7S, E)-17-Benzyl-4-isobutyl-2,5,10-trioxo-1-oxa-3,6,11-triazacycloheptadec-13-ene-7-carbaldehyde] | >100 | Fold more potent than compound 12 (NV 3CLpro; unsaturated linker versus saturated linker, Table 1): ~ 2 fold
15 | CC(C)C[C@@H]1NC(=O)OC(CCCc2ccccc2)CCCCCNC(=O)CC[C@@H](C(O)S(=O)(=O)[O-])NC1=O.[Na+] (stereo partly drawn) [Compound 28, Sodium hydroxyl ((4S, 7S)-4-isobutyl-2,5,10-trioxo-17-(3-phenylpropyl)-1-oxa-3,6,11-triazacycloheptadecan-7-yl) methanesulfonate] | 69.2 | –
16 | CC(C)C[C@@H]1NC(=O)OC(c2ccccc2)CCCCCNC(=O)CC[C@@H](C=O)NC1=O (stereo partly drawn) [Compound 11, (4S, 7S)-4-Isobutyl-2,5,10-trioxo-17-phenyl-1-oxa-3,6,11-triazacycloheptadecane-7-carbaldehyde] | >100 | –
17 | O=C[C@@H]1CCC(=O)NCCCCCC(c2cccc(Cl)c2)OC(=O)NC2(CCCCC2)C(=O)N1 (stereo partly drawn) [Compound 18, (20S)-10-(3-Chlorophenyl)-8,17,22-trioxo-9-oxa-7,16,21-triazaspiro[5.16]docosane-20-carbaldehyde] | 62.4 | Activity against NV 3CLpro and in cell based assays (in words) (NV 3CLpro): inactive
18 | O=C1CC[C@@H](C(O)S(=O)(=O)[O-])NC(=O)C2(CCCCC2)NC(=O)OC(c2cccc(Cl)c2)CCCCCN1.[Na+] (stereo partly drawn) [Compound 26, Sodium ((20S)-10-(3-chlorophenyl)-8,17,22-trioxo-9-oxa-7,16,21-triazaspiro [5.16]docosan-20-yl) (hydroxy) methanesulfonate] | 48.5 | Activity against NV 3CLpro and in cell based assays (in words) (NV 3CLpro): inactive
19 | CCCCCC1CCCCCNC(=O)CC[C@@H](C(O)S(=O)(=O)[O-])NC(=O)[C@H](CC(C)C)NC(=O)O1.[Na+] (stereo partly drawn) [Compound 29, Sodium hydroxyl ((4S, 7S)-4-isobutyl-2,5,10-trioxo-17-pentyl-1-oxa-3,6,11-triazacycloheptadecan-7-yl) methanesulfonate] | 78.5 | Fold less active than compounds 13/25 (NV 3CLpro; Table 1): ~ 2 fold
20 | O=C[C@@H]1CCC(=O)NCCCCCC(c2cccc(Cl)c2)OC(=O)N[C@@H](CC2CCCCC2)C(=O)N1 (stereo partly drawn) [14(minor), (4S, 7S)-17-(3-Chlorophenyl)-4-(cyclohexylmethyl)-2,5,10-trioxo-1-oxa-3,6,11-triazacycloheptadecane-7-carbaldehyde] | 45.3 | –
21 | CCCCCC1CCCCCNC(=O)CC[C@@H](C=O)NC(=O)[C@H](CC(C)C)NC(=O)O1 (stereo partly drawn) [Compound 21, (4S, 7S)-4-Isobutyl-2,5,10-trioxo-17-pentyl-1-oxa-3,6,11-triazacycloheptadecane-7-carbaldehyde] | 72.7 | Fold less active than compounds 13/25 (NV 3CLpro; Table 1): ~ 2 fold
22 | O=C1CC[C@@H](C(O)S(=O)(=O)[O-])NC(=O)C2(CCCCC2)NC(=O)OC(c2cccc(Cl)c2)CCCCCCN1.[Na+] (stereo partly drawn) [Compound 27, Sodium ((21S)-10-(3-chlorophenyl)-8,18,23-trioxo-9-oxa-7,17,22-triazaspiro[5.17]tricosan-21-yl) (hydroxy) methanesulfonate] | 46.6 | Activity against NV 3CLpro and in cell based assays (in words) (NV 3CLpro): inactive

Reference: publication PMC5296247 (European journal of medicinal chemistry, 2016)
